Among the data in the RepoRT retention time repository are LC retention time values, retold here.

The data set can be described thus: Agilent ZORBAX 300 SB-C18, 150 × 1 mm, 3.5 µm; A: water + 0.01% heptafluorobutyric acid; B: acetonitrile + 0.01% heptafluorobutyric acid; gradient (min/%B) 0/0 100/90. The following applies: stereoisomer not certain.
Take `CSC(=N)N`: the LC retention time is 4.66 min.
For `Cc1cc(C)c(N)c(C(=O)O)c1`, the LC retention time came out at 10.4 min.
Take `O=c1c(C=NCc2ccco2)c(NCc2ccco2)nc2ccccn12`: the LC retention time is 11.2 min.
As for `Cc1ccccc1CN`, the LC retention time worked out at 7.83 min.
For the compound `Cc1ccc(N)cc1C(=O)O`, the LC retention time worked out at 7.34 min.
For `c1ccc(CNCCNc2ccccc2)cc1`, the LC retention time is 9.6 min.
For `O=C(O)Cc1c[nH]c(=O)[nH]c1=O`, the LC retention time came to 2.17 min.
Take `O=C1Cc2ccccc2N1`: the LC retention time worked out at 8.51 min.
Under `COC(=O)Cn1c(=O)n(C)c2c(=O)n(C)c(=O)n(C)c21` stands 8.93 min; under `CCOc1ccccc1NC(=O)c1cc(=O)[nH]c(=O)[nH]1`, 9.16 min.
As for `CCCCCCn1c2ccccc2c2cc(C(=O)O)ccc21`, the figure is 17.8 min; as for `Cc1ccsc1C=CC(=O)c1ccc2ccccc2c1`, 18.5 min; as for `O=C(C[n+]1ccccc1)C1CC1`, 6.91 min.
As for `CN(c1ccccc1)c1nc(-n2ccnc2)nc(-n2ccnc2)n1`, the figure is 11.3 min.
`Oc1ccc(-c2cccc(-c3ccc(O)cc3)n2)cc1`: the LC retention time was found to be 10.1 min.
As to `c1ccc(CCNc2ccncn2)nc1`, the LC retention time worked out at 7.03 min.
As for `Cc1cc(C)c(NC(=O)Nc2ccccc2)c(C)n1`, the LC retention time turned out to be 8.82 min.
Under `CCOC(=O)C(Cc1ccccc1)n1cccc1` (stereo not given) stands 15.9 min; under `CC(C)NCCN(CCNC(C)C)CCNC(C)C`, 7.84 min; under `c1ccc2c(NC3=NCCS3)cccc2c1`, 9.27 min.
For the compound `Cc1ccc(CSc2ncccn2)c(CSc2ncccn2)c1C`, the LC retention time was 16 min.
For the compound `Cc1[nH]c2ccccc2c1CCN1C(=O)C2CCCCC2C1=O` (stereo not given), the LC retention time was found to be 14.3 min.
For `O=C(Nc1ccc2c(c1)oc1ccccc12)c1ccc(C2CCCCC2)cc1`, the LC retention time was 20.1 min.
Under `COc1ccc(Cc2c(O)n(-c3ccccc3)c(=O)[nH]c2=O)c(OC)c1` stands 11.6 min.
Under `CCN(CC)CC(CP(=O)(O)O)P(=O)(O)O` (stereo not given) stands 1.13 min; under `O=C(O)c1cc(-c2ccncc2)nc2ccccc12`, 8.16 min.
For the compound `CC(C)NCCO`, the LC retention time was 5.44 min.
Regarding `CC1N(CCC(N)=O)c2ccccc2C1(C)C` (stereo not given), the LC retention time was 11.8 min.
In the case of `O=C(O)CNC(CO)(CO)CO`, the LC retention time was found to be 1.66 min.
`Cc1c(O)c(=O)ccn1C`: the LC retention time came to 6.47 min.
For the compound `c1csc(-c2cnc3ccccc3n2)c1`, the LC retention time was found to be 14.3 min.
As for `Cn1c(C(=O)O)cc2ccccc21`, the LC retention time came out at 11.4 min.
As for `NCc1nccc2ccccc12`, the figure is 7.87 min.
On to `Cc1nncn1-c1ccccc1`, for which the LC retention time was found to be 8.5 min.
Take `Cc1cccc(Nc2cc(=O)[nH]c(=O)[nH]2)c1C`: the LC retention time is 8.71 min.
For the compound `C[N+](C)(C)CCOC(=O)c1ccccc1`, the LC retention time is 8.36 min.
As to `NC(=O)CCN1CCNCC1`, the LC retention time is 6.16 min.
Take `Cc1cccc(NC(=O)c2ccc3nccnc3c2)n1`: the LC retention time is 9.62 min.
On to `CCn1c(C)cc(C=O)c1C`, for which the LC retention time is 9.93 min.
Consider `Nc1ccc2[nH]ncc2c1`, for which the LC retention time came to 5.74 min.
For `CCCCOC(=O)C1C(C)=NC(=O)NC1c1ccc(CC)cc1` (stereo not given), the LC retention time amounted to 14.3 min.
Consider `NC(=O)C1CCCOC1` (stereo not given), for which the LC retention time came to 5.49 min.
Consider `CN1CC(=O)N(c2cccc(N)c2)C1=O`, for which the LC retention time is 6.98 min.
In the case of `CC(C)(C)NCC(O)c1ccc(O)c(CO)c1` (stereo not given), the LC retention time amounted to 7.63 min.
Regarding `Cc1ccccc1NCC(=O)Nc1c(C)cccc1C`, the LC retention time amounted to 13.8 min.
Regarding `COc1cccc(OC)c1OCc1nc2ccccc2nc1C`, the LC retention time was determined as 13.3 min.
As to `CCOc1ccc(N2C(=O)CC(N(Cc3ccc4c(c3)OCO4)C(C)=O)C2=O)cc1` (stereo not given), the LC retention time came to 12.5 min.
As for `Cc1cccc2cc[nH]c12`, the figure is 12.6 min; as for `CCNc1cccc(C)c1`, 8.38 min.
As for `NCc1cccc(CN)c1`, the figure is 7.04 min.
As to `CC(=O)C1(O)CCC2C3C=CC4=CC(=O)CCC4(C)C3CCC21C` (stereo not given), the LC retention time came out at 13.8 min.
For the compound `CC1(C)CC(NCc2ccncc2)CC(C)(C)N1`, the LC retention time worked out at 7.45 min.
Under `Cn1c(O)c(Cc2ccc(OCc3ccccc3)cc2)c(=O)n(C)c1=O` stands 15 min; under `NC(=O)NCCCC(N)C(=O)O` (stereo not given), 1.71 min.
Turning to `Nc1ccc(C(=O)Nc2cccc3ccccc23)cc1`, the LC retention time came out at 11.1 min.
For `O=C(O)c1cc(=O)n(-c2ccc(S(=O)(=O)O)cc2)[nH]1`, the LC retention time came out at 2.18 min.
As to `CC1CC(C)(C)Nc2c(O)cccc21` (stereo not given), the LC retention time amounted to 8.99 min.
For `Cc1[nH]c2ccccc2c1CCNC(N)=O`, the LC retention time worked out at 9.08 min.
`C=CC1CN2CCC1CC2C(O)c1ccnc2ccccc12` (stereo not given): the LC retention time worked out at 8.84 min.
As for `O=C(O)c1ccc2nccnc2c1`, the figure is 7.67 min.
For the compound `Cc1cc(C)c2c(O)c(Cc3ccccc3)c(=O)[nH]c2c1`, the LC retention time is 12.6 min.
Under `NC(=O)c1cc2ccccc2o1` stands 9.05 min; under `CN(C)NC1=CC(=O)CC(c2ccccc2)C1` (stereo not given), 10.4 min.
For the compound `Cn1c2c(c(=O)[nH]c1=O)C(c1ccccc1)C1=C(N2)c2ccccc2C1=O` (stereo not given), the LC retention time turned out to be 10.6 min.
For the compound `Cc1[nH]c2c(C)ccc(C)c2c1CCN`, the LC retention time is 9.21 min.
Under `CC(C)NC(C)C` stands 7.12 min; under `COc1ccc(C(CNC(=O)c2n[nH]c(=O)c3ccccc23)Cc2ccccc2)cc1OC` (stereo not given), 13.3 min; under `Nc1cccc2oc3ccccc3c12`, 11.6 min.
As for `Nc1ccc2c(c1)nc(-c1ccccc1)c1cc(N)ccc12`, the figure is 9.3 min.
As for `S=C(NCc1ccccc1)NCc1ccc2[nH]c3c(c2c1)CCCC3`, the LC retention time came to 15.4 min.
As for `COc1ccc(Oc2ccc(-n3c(C)ccc3C)cc2)cc1`, the figure is 18.9 min; as for `Cc1ccc(C(=O)C=Cc2sccc2C)cc1`, 17.4 min; as for `COC(=O)COC(=O)c1ccccc1NC(=O)c1ccccc1`, 15.1 min.
Under `O=C(C=Cc1ccccc1)c1ccc(O)cc1` stands 12.9 min; under `CNC(C)c1ccccc1` (stereo not given), 7.92 min; under `Oc1ccc(-n2cccc2)cc1`, 11.5 min.
As for `Nc1cc(-c2ccc(C(=O)c3ccccc3)c(N)c2)ccc1C(=O)c1ccccc1`, the LC retention time stood at 16.4 min.
As for `CN(C)c1nc(N(C)C)nc(N2CCCCC2)n1`, the figure is 11.2 min; as for `CCN(CC)c1ccc(CNCCCN(C)C)cc1`, 7.76 min; as for `Cc1nc2c(ccc3ccccc32)c(C)c1C`, 10.9 min.
Turning to `C1CCC(OCCNCCOC2CCCCC2)CC1`, the LC retention time came out at 12 min.
`CCOC(=O)c1ccc(N(CC)CC)cc1`: the LC retention time is 12.5 min.
For `Nc1c2c(nc3ccccc13)N(C1CCCCC1)CC2`, the LC retention time came to 10.9 min.
For the compound `COc1ccc(Cc2c(O)n(C)c(=O)n(C)c2=O)c(OC)c1OC`, the LC retention time came to 11.2 min.
For `O=C(C=Cc1cccc(O)c1)c1ccccc1O`, the LC retention time turned out to be 12.2 min.
As for `S=C(NC1CCCCC1)NC1CCCCC1`, the figure is 14.9 min; as for `CC1(C)Cc2ccccc2C(C2=C(O)CCCC2=O)=N1`, 10.1 min.
On to `c1ccc(-c2cc(N3CCCCC3)c3ccccc3n2)cc1`, for which the LC retention time is 12 min.
Under `CC(C)CNC(=O)C(=O)Nc1ccc(N(C)C)cc1` stands 9.98 min; under `Cc1nnc(Oc2ccccc2)c2ccccc12`, 10.8 min; under `CC1CNCCN1` (stereo not given), 6.48 min.
As to `O=C(O)c1n[nH]c(=O)[nH]1`, the LC retention time is 1.25 min.
With `O=CNC1CCCCC1`, the LC retention time came out at 8.38 min.
With `COc1ccc(CN(CCN(C)C)c2ccccn2)cc1`, the LC retention time is 10.1 min.
Turning to `COc1ccc(C=CC(=O)c2ccccc2)cc1OC`, the LC retention time stood at 14.5 min.
As for `CCN1CN(Cc2ccccc2)CNC1=S`, the figure is 10.8 min; as for `CC(C)CC(C)N` (stereo not given), 7.77 min.
As to `CN1CCN(C(=O)c2nn(C)c(=O)c3ccccc23)CC1`, the LC retention time worked out at 7.52 min.
With `CNC1CCCCC1NC` (stereo not given), the LC retention time was found to be 7.14 min.
In the case of `Cc1ccc2[nH]c(=O)c(=O)[nH]c2c1C`, the LC retention time was found to be 8.13 min.
Turning to `CCc1ccc(C(c2c[nH]c3ccccc23)c2c[nH]c3ccccc23)cc1`, the LC retention time worked out at 18.2 min.
Consider `CC1(C)SC2C(NC(=O)Cc3ccccc3)C(=O)N2C1C(=O)O` (stereo not given), for which the LC retention time is 10.5 min.
For `CC(=O)Nc1cc(=O)[nH]c(C)n1`, the LC retention time worked out at 5.68 min.
Under `CCC1NC(=O)NC(C)=C1C(C)=O` (stereo not given) stands 7.34 min.
Turning to `NC(=O)NC1CCCCC1`, the LC retention time amounted to 7.79 min.
For `Nc1cccc(C2=NCCN2)c1`, the LC retention time stood at 6.85 min.
With `O=C1CCCC(O)=C1C1(O)C(=O)c2ccccc2C1=O`, the LC retention time came out at 8.21 min.
Consider `Cc1ccc(N2C(=O)CC(N(CCc3ccccc3)C(=S)Nc3cccc(C)c3)C2=O)cc1` (stereo not given), for which the LC retention time amounted to 17.6 min.
Consider `O=C(O)CNc1ccccc1C(=O)O`, for which the LC retention time was determined as 9.2 min.
As to `O=C(CN1CCN(C(=O)CNC2CCCCC2)CC1)NC1CCCCC1`, the LC retention time came out at 9.54 min.
